The text below walks through data of patent US8741942B2, “Inhibitors of cellular necrosis” (President and Fellows of Harvard College, priority 2003, dated 2014).

Counter-ions that a name gives are not always drawn. Some results are limits rather than exact numbers.

The test system of one series is human B cell line U-937. Put plainly: Library screen for inhibition of cell death induced by TNF-α in the presence of zVAD. The format is cell-based. The settings on record: U-937 cells. From the text: (§1) After a cell receives an initial assault either apoptotic, necrotic, or both apoptotic and necrotic mechanisms of cell death may be activated. The present example focuses on the necrosis pathway. Several chemical assaults were used to induce cell death, including exposure to tumor necrosis factor alpha (TNF-α), Fas ligand or β-amyloid protein. Various cell types were also used, including human neuroblastoma cells (SH-SY5Y) and human Jurkat T cells. In order to block the apoptosis mechanism, a general caspase inhibitor, N-benzyloxycarbonyl-valine-alanine-aspartic acid-(OMe) fluoromethyl ketone (zVAD, Polyerino, A. J.; Patterson, S. D. J. Biol. Chem. 1997, 272, 7013-7021), was used. […] Resulting cell death occurs by a necrosis-like mechanism (Holler, N., et al. Nature Immunol. 2000, 1, 489-495; Kawahara, A., et al. J. Cell Biol. 1998, 143, 1353-1360). Experimental compounds were applied to the cells in attempts to rescue them from this necrotic death. Therefore, compounds found to restore cell viability using this protocol are inhibitors of the necrosis pathway.
Compound libraries were screened for inhibition of cell death induced by TNF-α in the presence of zVAD in human B cell line U-937.
As to `CN1C(=O)C(Cc2c[nH]c3ccccc23)NC1=S` (centres unmarked) [Compound 1], the “inhibition of cell death induced by TNF-α in the presence of zVAD” value is “inhibitor of necrosis”.

A further series concerns human Jurkat T cells challenged with Fas ligand and treated with zVAD. Briefly: Anti-necrotic activity, human Jurkat T cells challenged with Fas ligand and treated with zVAD. The format is cell-based. The settings on record: viability after 36 h by CellTiter ATP assay, read-out: EC50 (μM) for cell viability.
Description: as §1
Compounds were also tested in another necrosis assay utilizing human Jurkat T cells, Fas ligand to induce cell death, and zVAD to inhibit the apoptosis pathway. After 36 h, cell viability was measure by the commercial CellTiter ATP cell viability assay (Promega).
Compounds were screened for anti-necrotic activity utilizing human Jurkat T cells challenged with Fas ligand and treated with zVAD to inhibit the apoptosis pathway.
`CN1C(=O)C(Cc2c[nH]c3ccccc23)NC1=S` (centres unmarked) [Compound 893-01, 5-(1H-Indol-3-ylmethyl)-3-methyl-2-thioxo-imidazolidin-4-one]: the EC50 is 6 µM.

Turning to `CCN1C(=O)NC(Cc2c[nH]c3ccccc23)C1=O` (centres unmarked) [Compound 893-04, 3-Ethyl-5-(1H-indol-3-ylmethyl)-imidazolidine-2,4-dione], the EC50 was 10 µM.

As to `CN1C(=O)C(Cc2c[nH]c3cc(F)ccc23)NC1=S` (centres unmarked) [Compound 893-05, 5-(6-Fluoro-1H-Indol-3-ylmethyl)-3-methyl-2-thioxo-imidazolidin-4-one], the EC50 was 2.3 µM.

On to `CN1C(=O)C(Cc2cn(C)c3ccccc23)NC1=S` (centres unmarked) [Compound 893-08, 3-Methyl-5-(1-methyl-1H-Indol-3-ylmethyl)-2-thioxo-imidazolidin-4-one], for which the EC50 is 35 µM.

With `CN1C(=O)C(Cc2c[nH]c3c(F)cccc23)NC1=S` (centres unmarked) [Compound 893-09, 5-(7-Fluoro-1H-Indol-3-ylmethyl)-3-methyl-2-thioxo-imidazolidin-4-one], the EC50 was found to be 4 µM.

Turning to `CN1C(=O)C(Cc2c[nH]c3c(Cl)cccc23)NC1=S` (centres unmarked) [Compound 893-10, 5-(7-Chloro-1H-indol-3-ylmethyl)-3-methyl-2-thioxo-imidazolidin-4-one], the EC50 stood at 1.5 µM.

`CN1C(=O)C(Cc2c[nH]c3cc(Cl)ccc23)NC1=S` (centres unmarked) [Compound 893-11, 5-(6-Chloro-1H-indol-3-ylmethyl)-3-methyl-2-thioxo-imidazolidin-4-one]: the EC50 is 67 µM.

Take `CN1C(=O)C(Cc2c[nH]c3c(Br)cccc23)NC1=S` (centres unmarked) [Compound 893-12, 5-(7-Bromo-1H-indol-3-ylmethyl)-3-methyl-2-thioxo-imidazolidin-4-one]: the EC50 was 1.8 µM.

As to `COc1cccc2c(CC3NC(=S)N(C)C3=O)c[nH]c12` (centres unmarked) [Compound 893-13, 5-(7-Methoxy-1H-indol-3-ylmethyl)-3-methyl-2-thioxo-imidazolidin-4-one], the EC50 was found to be 10.3 µM.

With `CN1C(=O)NC(Cc2c[nH]c3ccccc23)C1=O` (centres unmarked) [Compound 893-20, 3-Methyl-5-(1H-indol-3-ylmethyl)-imidazolidine-2,4-dione], the EC50 is 6 µM.

As to `CN1C(=O)C(Cc2csc3ccccc23)NC1=S` (centres unmarked) [Compound 893-21, 5-Benzo[b]thiophen-3-ylmethyl-3-methyl-2-thioxo-imidazolidin-4-one], the EC50 was found to be 8 µM.

Test system in a further series: not given
Assay: not given
Details: not given
In turn, `O=C1NC(=O)C(Cc2c[nH]c3ccccc23)N1` (centres unmarked) (as salt: potassium) returned a melting point of 229 to 232 °C.

For `CN1C(=O)C(C)(Cc2c[nH]c3ccccc23)NC1=S` (centres unmarked) [Compound 893-02, 5-(1H-Indol-3-ylmethyl)-3,5-dimethyl-2-thioxo-imidazolidin-4-one], the melting point was 179 to 182 °C.

On to `CN1C(=O)C(Cc2c[nH]c3ccccc23)N(C)C1=S` (centres unmarked) [Compound 893-03, 5-(1H-Indol-3-ylmethyl)-1,3-dimethyl-2-thioxo-imidazolidin-4-one], for which the melting point is 132 to 135 °C.

The molecule `CN1C(=O)C(Cc2c[nH]c3cc(F)ccc23)NC1=S` (centres unmarked) [Compound 893-05, 5-(6-Fluoro-1H-Indol-3-ylmethyl)-3-methyl-2-thioxo-imidazolidin-4-one] yielded a melting point of 126 to 129 °C.

As to `COc1ccc2[nH]cc(CC3NC(=S)N(C)C3=O)c2c1` (centres unmarked) [Compound 893-06, 5-(5-Methoxy-1H-Indol-3-ylmethyl)-3-methyl-2-thioxo-imidazolidin-4-one], the melting point was 181 to 185 °C.

Molecule `CN1C(=O)C(Cc2c[nH]c3ccc(O)cc23)NC1=S` (centres unmarked) [Compound 893-07, 5-(5-Hydroxy-1H-Indol-3-ylmethyl)-3-methyl-2-thioxo-imidazolidin-4-one] registered a melting point of 166 to 168 °C.

In turn, `CN1C(=O)C(Cc2cn(C)c3ccccc23)NC1=S` (centres unmarked) [Compound 893-08, 3-Methyl-5-(1-methyl-1H-Indol-3-ylmethyl)-2-thioxo-imidazolidin-4-one] showed a melting point of 155 to 157 °C.

In the case of `CN1C(=O)C(Cc2c[nH]c3c(F)cccc23)NC1=S` (centres unmarked) [Compound 893-09, 5-(7-Fluoro-1H-Indol-3-ylmethyl)-3-methyl-2-thioxo-imidazolidin-4-one], the melting point lay within 217 to 220 °C.

On to `CN1C(=O)C(Cc2c[nH]c3c(Br)cccc23)NC1=S` (centres unmarked) [Compound 893-12, 5-(7-Bromo-1H-indol-3-ylmethyl)-3-methyl-2-thioxo-imidazolidin-4-one], for which the melting point fell in the range of 230 to 233 °C.

Consider `COc1cccc2c(CC3NC(=S)N(C)C3=O)c[nH]c12` (centres unmarked) [Compound 893-13, 5-(7-Methoxy-1H-indol-3-ylmethyl)-3-methyl-2-thioxo-imidazolidin-4-one], for which the melting point lay in the range of 219 to 222 °C.

Consider `CN1C(=O)C(Cc2c[nH]c3c(Cl)cc(S(C)(=O)=O)cc23)NC1=S` (centres unmarked) [Compound 893-16, 5-(7-Chloro-5-methanesulfonyl-1H-indol-3-ylmethyl)-3-methyl-2-thioxo-imidazolidin-4-one], for which the melting point lay within 242 to 245 °C.

A further series deals with human FAD-deficient Jurkat T cells challenged with human TNF-alpha. Put plainly: Anti-necrotic activity, FADD-/- Jurkat T cells challenged with human TNF-alpha. The settings on record: 10 ng/ml human TNFα, 30 hours, CellTiter-Glo ATP assay, read-out: EC50 (μM) for cell viability. The class given is cell-based. Here is the method: Compounds were screened for anti-necrotic activity utilizing human FAD-deficient Jurkat T cells challenged with human TNF-alpha. FADD−/− Jurkat cells (Juo P, et al. Cell Growth Differ. 1999, 10(12):797-804) were seeded at the density of 5*10^5 cells/mL into 96 well white plates (Costar) at 100 μL/well. Cells were treated in duplicate with various concentrations of test compounds in the presence or absence of 10 ng/ml human TNFα (Cell Sciences). After 30 hours viability of the cells was determined using luminescent ATP-based cell viability assay (CellTiter-Glo, Promega). Percentage of protection by the compound was calculated as a ratio of the cps (counts per second) value in the well treated with the test compound and TNFα to the cps value in the well treated with the compound alone.
In general terms: In ATP-based viability assays light output follows the ATP content of the culture.
Consider `Cc1cccc2c(CC3NC(=O)N(C)C3=O)c[nH]c12` (centres unmarked) [Compound 893-23], for which the EC50 worked out at 0.095 µM.

Regarding `Cc1cccc2c(CC3NC(=O)N(C)C3=O)c[nH]c12` (centres unmarked) [Compound 893-38], the EC50 was more than 10 µM.

The series is the same for the next values; noted with them: Homo sapiens, Jurkat, 30 h, 10 ng/ml human TNFα, CellTiter-Glo ATP assay, read-out: EC50 (μM) for cell viability.
For `CN1C(=O)NC(Cc2csc3ccccc23)C1=O` (racemic) [Compound 893-39, 5-benzo[b]thiophen-3-ylmethyl-3-methyl-imidazolidine-2,4-dione], the EC50 was 5.4 µM.

On to `CN1C(=O)C(Cc2csc3ccccc23)NC1=S` (centres unmarked) [Compound 893-21, 5-Benzo[b]thiophen-3-ylmethyl-3-methyl-2-thioxo-imidazolidin-4-one], for which the EC50 amounted to 0.845 µM.

As for `CN1C(=O)NC(Cc2c[nH]c3ccccc23)C1=O` (centres unmarked) [Compound 893-22, 5-(1H-Indol-3-ylmethyl)-3-methylimidazolidine-2,4-dione], the EC50 worked out at 0.439 µM.

As for `COc1cccc2c(CC3NC(=O)N(C)C3=O)c[nH]c12` (centres unmarked) [Compound 893-25], the EC50 was 0.229 µM.

`CN1C(=O)NC(Cc2c[nH]c3c(F)cccc23)C1=O` (centres unmarked) [Compound 893-28]: the EC50 came to 0.324 µM.

As for `CN1C(=O)N[C@@H](Cc2c[nH]c3c(Cl)cccc23)C1=O` [Compound 893-31], the EC50 came out at 0.303 µM.

Consider `CN1C(=O)N[C@H](Cc2c[nH]c3c(Cl)cccc23)C1=O` [Compound 893-32], for which the EC50 stood at 0.078 µM.

In the case of `CN1C(=O)NC(Cc2c[nH]c3c(Cl)cc(Cl)cc23)C1=O` (centres unmarked) [Compound 893-33], the EC50 was more than 10 µM.

Take `CCN1C(=O)NC(Cc2c[nH]c3c(Cl)cccc23)C1=O` (centres unmarked) [Compound 893-34]: the EC50 came out at 0.154 µM.

On to `CN1C(=O)C(Cc2c[nH]c3c(Cl)cccc23)N(C)C1=O` (centres unmarked) [Compound 893-36, 5-(7-Chloro-1H-indol-3-ylmethyl)-1,3-dimethyl-imidazolidine-2,4-dione], for which the EC50 is more than 10 µM.

Turning to `CN1C(=O)NC(Cc2cn(C)c3c(Cl)cccc23)C1=O` (centres unmarked) [Compound 893-37, 5-(7-Chloro-1-methyl-1H-indol-3-ylmethyl)-3-methyl-imidazolidine-2,4-dione], the EC50 came to 1.8 µM.

Turning to `COCCOc1cccc2c(CC3NC(=O)N(C)C3=O)c[nH]c12` (centres unmarked) [Compound 893-41], the EC50 was more than 10 µM.

`CN1C(=O)NC(Cc2c[nH]c3c(OCc4ccccc4)cccc23)C1=O` (centres unmarked) [Compound 893-42]: the EC50 is more than 10 µM.

Turning to `Cc1[nH]c2c(Cl)cccc2c1CC1NC(=O)N(C)C1=O` (centres unmarked) [Compound 893-43], the EC50 was more than 10 µM.

For `CC(C)N1C(=O)NC(Cc2c[nH]c3c(Cl)cccc23)C1=O` (centres unmarked) [Compound 893-44], the EC50 is more than 10 µM.

On to `CN1C(=O)NC(Cc2c[nH]c3c(Cl)c(Cl)ccc23)C1=O` (centres unmarked) [Compound 893-50], for which the EC50 is more than 10 µM.

For `O=C1NC(Cc2c[nH]c3c(Cl)cccc23)CO1` (centres unmarked) [Compound 893-51, 4-(7-chloro-1H-indol-3-ylmethyl)-oxazolidin-2-one], the EC50 was more than 10 µM.

With `CN1CC(Cc2c[nH]c3c(Cl)cccc23)NC1=O` (centres unmarked) [Compound 893-52, 4-(7-chloro-1H-indol-3-ylmethyl)-1-methyl-imidazolidin-2-one], the EC50 was more than 10 µM.

As to `CN1C(=O)OC(Cc2c[nH]c3c(Cl)cccc23)C1=O` (centres unmarked) [Compound 893-53, 5-(7-chloro-1H-indol-3-ylmethyl)-3-methyl-oxazolidine-2,4-dione], the EC50 was determined as 0.359 µM.

As usually defined, the EC50 is the concentration needed to bring the measured effect to its halfway point. The melting point is the temperature of the solid-liquid transition.
